{"source": "ChEMBL document CHEMBL1201862", "about": "“PubChem BioAssay data set” (2004)", "key": {"[1]": {"experiment": "Luminescence-based cell-based high throughput dose response assay to identify activators of the DAF-12 from the parasite S. stercoralis (ssDAF-12).", "assay_type": "functional"}, "[2]": {"biological_target": "T1, Oxysterols receptor LXR-beta (Homo sapiens, UniProt P55055)", "T1 sequence (P55055 whole entry)": "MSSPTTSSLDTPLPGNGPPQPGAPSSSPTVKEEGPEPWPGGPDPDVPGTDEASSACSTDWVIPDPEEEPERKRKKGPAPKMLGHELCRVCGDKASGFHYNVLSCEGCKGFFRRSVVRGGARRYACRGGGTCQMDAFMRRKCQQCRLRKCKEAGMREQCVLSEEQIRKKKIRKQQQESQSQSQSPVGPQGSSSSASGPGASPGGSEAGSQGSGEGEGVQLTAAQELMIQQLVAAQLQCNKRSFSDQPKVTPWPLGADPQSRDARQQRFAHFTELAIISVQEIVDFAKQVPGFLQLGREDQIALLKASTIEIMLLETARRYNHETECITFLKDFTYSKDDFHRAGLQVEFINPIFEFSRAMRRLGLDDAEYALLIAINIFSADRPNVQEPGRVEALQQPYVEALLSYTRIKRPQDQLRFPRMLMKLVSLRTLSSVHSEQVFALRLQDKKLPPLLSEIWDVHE", "experiment": "LXR agonists, Gal4 luciferase reporter, dose response, counter-screen for ssDAF-12 agonist project, cell-based, luminescence, HEK293, S. stercoralis campaign (AID 720737)", "assay_type": "functional", "details": "read-out: IC50 (the source's name)"}, "[3]": {"experiment": "CellTiter-Glo luminescence survival assay, SW480 colon tumor line, concentration-response curve, half-maximal inhibitory concentration (AID 1117338)", "assay_type": "functional"}, "[4]": {"experiment": "RKO cell viability reduction, dose response, CellTiter-Glo luminescence (AID 1117322)", "assay_type": "functional"}, "[5]": {"experiment": "cytotoxicity toward HCT116 cells – cell-based, CellTiter-Glo luminescence, IC50, dose response (AID 1117332)", "assay_type": "functional", "details": "HCT-116"}, "[6]": {"experiment": "SNU-C1 cell viability reduction, dose response, CellTiter-Glo luminescence (AID 1117323)", "assay_type": "functional, cell-based"}, "[7]": {"experiment": "cytotoxicity toward Colo320 cells – cell-based, CellTiter-Glo luminescence, IC50, dose response (AID 1117334)", "assay_type": "functional", "details": "COLO 320"}, "[8]": {"experiment": "cytotoxicity toward HT-29 cells – cell-based, CellTiter-Glo luminescence, IC50, dose response (AID 1117330)", "assay_type": "functional"}, "[9]": {"experiment": "Reduced DLD-1 viability, concentration-response, CellTiter-Glo luminescence (AID 1117352)", "assay_type": "functional"}, "[10]": {"biological_target": "1-phosphatidylinositol 4,5-bisphosphate phosphodiesterase gamma-1 (Homo sapiens, UniProt P19174)", "sequence (P19174 whole entry)": "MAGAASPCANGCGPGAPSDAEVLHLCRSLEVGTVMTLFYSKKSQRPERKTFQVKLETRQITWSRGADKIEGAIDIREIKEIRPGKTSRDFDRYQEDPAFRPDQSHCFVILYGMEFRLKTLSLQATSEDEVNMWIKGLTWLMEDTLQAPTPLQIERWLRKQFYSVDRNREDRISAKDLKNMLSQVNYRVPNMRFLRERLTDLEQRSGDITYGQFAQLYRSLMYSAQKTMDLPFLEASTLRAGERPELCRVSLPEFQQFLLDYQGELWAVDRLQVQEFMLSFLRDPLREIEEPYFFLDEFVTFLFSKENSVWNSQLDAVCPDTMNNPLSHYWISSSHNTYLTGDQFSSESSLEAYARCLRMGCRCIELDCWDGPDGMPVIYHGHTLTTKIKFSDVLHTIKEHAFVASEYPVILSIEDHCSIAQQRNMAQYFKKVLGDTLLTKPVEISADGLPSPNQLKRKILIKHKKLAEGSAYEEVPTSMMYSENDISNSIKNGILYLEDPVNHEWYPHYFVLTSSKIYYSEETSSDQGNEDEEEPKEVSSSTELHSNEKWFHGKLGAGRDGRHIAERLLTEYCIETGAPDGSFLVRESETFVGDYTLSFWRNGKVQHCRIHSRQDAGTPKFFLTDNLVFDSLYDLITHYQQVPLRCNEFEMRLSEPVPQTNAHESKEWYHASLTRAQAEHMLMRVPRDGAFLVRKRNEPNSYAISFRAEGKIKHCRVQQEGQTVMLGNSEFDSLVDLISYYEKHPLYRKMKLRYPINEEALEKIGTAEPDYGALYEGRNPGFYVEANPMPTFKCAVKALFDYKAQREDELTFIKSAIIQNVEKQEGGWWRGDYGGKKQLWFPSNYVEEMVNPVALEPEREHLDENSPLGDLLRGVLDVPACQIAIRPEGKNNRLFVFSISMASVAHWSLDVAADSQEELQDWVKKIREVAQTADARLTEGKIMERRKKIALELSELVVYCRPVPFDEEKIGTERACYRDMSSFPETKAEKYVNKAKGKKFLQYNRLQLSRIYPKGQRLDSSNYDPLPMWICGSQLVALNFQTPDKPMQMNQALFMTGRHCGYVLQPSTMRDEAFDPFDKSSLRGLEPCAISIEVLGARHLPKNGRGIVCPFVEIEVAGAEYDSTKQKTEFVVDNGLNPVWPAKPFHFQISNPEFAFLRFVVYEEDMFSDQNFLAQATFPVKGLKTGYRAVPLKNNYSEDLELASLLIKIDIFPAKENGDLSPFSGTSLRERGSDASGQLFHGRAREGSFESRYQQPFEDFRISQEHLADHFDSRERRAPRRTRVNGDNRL", "experiment": "Counterscreen for inhibitors of phospholipase C isozymes (PLC-B3): Fluorescence-based biochemical high throughput dose response assay to identify inhibitors of phospholipase C isozymes (PLC-gamma1)."}, "[11]": {"biological_target": "1-phosphatidylinositol 4,5-bisphosphate phosphodiesterase beta-3 (Homo sapiens, UniProt Q01970)", "sequence (Q01970 whole entry)": "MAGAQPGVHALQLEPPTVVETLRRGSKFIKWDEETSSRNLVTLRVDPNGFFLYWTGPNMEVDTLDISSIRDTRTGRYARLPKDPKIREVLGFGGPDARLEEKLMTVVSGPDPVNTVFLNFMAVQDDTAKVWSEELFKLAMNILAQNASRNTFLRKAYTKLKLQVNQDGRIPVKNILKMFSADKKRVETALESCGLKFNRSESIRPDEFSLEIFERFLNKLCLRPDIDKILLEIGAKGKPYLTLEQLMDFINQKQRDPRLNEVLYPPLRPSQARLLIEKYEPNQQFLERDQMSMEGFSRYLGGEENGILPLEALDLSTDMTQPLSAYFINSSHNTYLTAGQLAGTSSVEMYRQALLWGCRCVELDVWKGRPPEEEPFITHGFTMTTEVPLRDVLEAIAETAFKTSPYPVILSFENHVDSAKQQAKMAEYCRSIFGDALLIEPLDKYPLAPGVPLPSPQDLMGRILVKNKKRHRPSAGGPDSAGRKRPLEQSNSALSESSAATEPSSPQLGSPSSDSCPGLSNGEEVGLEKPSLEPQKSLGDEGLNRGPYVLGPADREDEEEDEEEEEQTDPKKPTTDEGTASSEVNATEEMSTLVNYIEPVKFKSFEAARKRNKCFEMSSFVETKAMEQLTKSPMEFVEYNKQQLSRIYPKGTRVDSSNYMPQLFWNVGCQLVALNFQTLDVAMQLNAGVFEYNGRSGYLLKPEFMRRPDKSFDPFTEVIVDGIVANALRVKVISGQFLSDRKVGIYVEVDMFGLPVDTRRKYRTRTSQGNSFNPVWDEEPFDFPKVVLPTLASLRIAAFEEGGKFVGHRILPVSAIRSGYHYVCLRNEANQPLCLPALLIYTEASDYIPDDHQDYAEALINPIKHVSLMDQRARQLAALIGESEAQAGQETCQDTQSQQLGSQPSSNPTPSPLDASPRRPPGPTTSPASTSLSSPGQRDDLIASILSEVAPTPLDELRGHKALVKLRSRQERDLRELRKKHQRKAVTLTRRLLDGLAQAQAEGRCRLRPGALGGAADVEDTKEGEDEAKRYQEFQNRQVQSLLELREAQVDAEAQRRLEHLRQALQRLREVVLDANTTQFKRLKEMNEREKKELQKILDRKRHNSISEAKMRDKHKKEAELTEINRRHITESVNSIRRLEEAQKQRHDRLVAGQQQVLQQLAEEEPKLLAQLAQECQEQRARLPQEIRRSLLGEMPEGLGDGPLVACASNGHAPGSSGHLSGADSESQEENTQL", "experiment": "Fluorescence-based biochemical high throughput dose response assay to identify inhibitors of phospholipase C isozymes (PLC-B3)."}, "Trypsin": {"biological_target": "Trypsin (Sus scrofa, UniProt P00761)", "sequence (P00761 whole entry)": "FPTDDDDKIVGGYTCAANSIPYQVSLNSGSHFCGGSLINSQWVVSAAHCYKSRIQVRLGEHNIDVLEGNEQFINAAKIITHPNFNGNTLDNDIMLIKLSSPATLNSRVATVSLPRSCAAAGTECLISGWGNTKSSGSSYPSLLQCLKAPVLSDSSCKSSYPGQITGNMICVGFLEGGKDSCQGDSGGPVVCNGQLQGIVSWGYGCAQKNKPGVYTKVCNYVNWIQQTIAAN", "experiment": "trypsin protease activity blockade – biochemical, quenched peptide fluorescence, cherry-pick, selectivity assay for Rce1 protease inhibitor project, dose response (AID 488789)"}, "CAAX prenyl protease 2": {"biological_target": "T2, CAAX prenyl protease 2 (Saccharomyces cerevisiae S288c, UniProt Q03530)", "T2 sequence (Q03530 whole entry)": "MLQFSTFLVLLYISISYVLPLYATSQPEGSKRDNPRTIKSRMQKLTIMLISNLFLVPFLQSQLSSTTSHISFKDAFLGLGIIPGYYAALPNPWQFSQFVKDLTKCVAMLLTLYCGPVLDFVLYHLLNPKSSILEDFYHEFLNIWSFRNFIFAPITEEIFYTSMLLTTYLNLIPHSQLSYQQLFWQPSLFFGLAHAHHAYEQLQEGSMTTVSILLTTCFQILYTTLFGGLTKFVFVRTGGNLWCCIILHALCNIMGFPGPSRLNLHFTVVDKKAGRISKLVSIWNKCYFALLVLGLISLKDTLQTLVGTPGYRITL", "assay_type": "biochemical"}, "Protein Tat": {"biological_target": "Protein Tat (Human immunodeficiency virus type 1 group M subtype B (isolate HXB2)(HIV-1), UniProt P04608)", "sequence (P04608 whole entry)": "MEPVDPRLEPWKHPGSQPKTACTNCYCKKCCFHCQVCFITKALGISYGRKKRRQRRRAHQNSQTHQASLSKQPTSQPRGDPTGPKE", "assay_type": "functional"}, "[12]": {"experiment": "HIV-1 Vif–A3G interaction blockers – biochemical, TR-FRET, GST-Vif 1-94, biotin-A3G peptide, dose response retest, primary screen (AID 1117319);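 note: TR-FRET signal of purified GST-Vif binding a biotinylated A3G peptide; inhibitors lower the FRET signal by blocking Vif and A3G binding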", "assay_type": "functional"}, "[13]": {"biological_target": "T3, Rac GTPase-activating protein 1 (Homo sapiens, UniProt Q9H0H5)", "T3 sequence (Q9H0H5 whole entry)": "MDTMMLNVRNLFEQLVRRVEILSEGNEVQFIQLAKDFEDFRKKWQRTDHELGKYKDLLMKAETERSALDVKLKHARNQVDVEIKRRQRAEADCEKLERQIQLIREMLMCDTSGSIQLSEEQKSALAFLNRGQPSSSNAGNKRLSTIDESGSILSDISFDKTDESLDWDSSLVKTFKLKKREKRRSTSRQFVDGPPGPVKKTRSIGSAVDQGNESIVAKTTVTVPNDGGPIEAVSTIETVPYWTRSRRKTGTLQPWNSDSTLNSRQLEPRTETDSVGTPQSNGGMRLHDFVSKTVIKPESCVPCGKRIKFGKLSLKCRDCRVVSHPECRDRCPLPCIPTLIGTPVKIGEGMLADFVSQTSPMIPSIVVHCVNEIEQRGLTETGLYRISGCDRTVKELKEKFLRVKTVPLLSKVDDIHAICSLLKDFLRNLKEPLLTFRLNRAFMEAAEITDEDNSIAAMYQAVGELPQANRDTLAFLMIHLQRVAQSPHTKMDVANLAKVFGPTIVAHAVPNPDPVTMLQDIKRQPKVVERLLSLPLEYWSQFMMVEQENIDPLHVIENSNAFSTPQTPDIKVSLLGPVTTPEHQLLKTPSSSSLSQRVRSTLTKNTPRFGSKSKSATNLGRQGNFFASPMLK", "experiment": "blockers of MgcRacGAP-driven Rac1 GTP hydrolysis – biochemical, ADP Hunter fluorescence, primary and confirmatory, confirmation (AID 624330)", "assay_type": "functional"}, "[14]": {"experiment": "Dd2 parasite growth inhibition in erythrocytes – SYBR Green, dry powder samples, set 9, dose response (AID 1159568)", "assay_type": "functional, cell-based"}, "Paired box protein Pax-8": {"biological_target": "Paired box protein Pax-8 (Homo sapiens, UniProt Q06710)", "sequence (Q06710 whole entry)": "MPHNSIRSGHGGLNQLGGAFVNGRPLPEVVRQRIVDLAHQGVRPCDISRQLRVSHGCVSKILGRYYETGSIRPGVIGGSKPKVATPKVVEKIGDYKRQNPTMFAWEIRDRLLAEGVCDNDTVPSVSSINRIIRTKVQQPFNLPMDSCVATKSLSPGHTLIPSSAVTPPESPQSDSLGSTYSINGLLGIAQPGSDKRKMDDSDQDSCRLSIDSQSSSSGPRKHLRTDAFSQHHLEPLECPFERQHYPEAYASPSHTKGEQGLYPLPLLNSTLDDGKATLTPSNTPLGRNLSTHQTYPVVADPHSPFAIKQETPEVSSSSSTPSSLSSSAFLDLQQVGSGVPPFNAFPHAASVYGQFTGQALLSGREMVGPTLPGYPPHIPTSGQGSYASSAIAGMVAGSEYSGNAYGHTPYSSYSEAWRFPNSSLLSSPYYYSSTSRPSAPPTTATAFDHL", "experiment": "PAX8 transcriptional activity inhibition in RMG-I – RMG-I cells, luciferase, cherry-pick, dose response (AID 687027);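 note: luciferase reporter driven by Pax8 target thyroperoxidase promoter measured by SteadyGlo luminescence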", "assay_type": "functional, cell-based"}, "[15]": {"experiment": "toxicity toward immortalized ovarian surface epithelium – cell-based, plate reader, dry powder samples, cytotoxicity control for PAX8 inhibitor project, dose response (AID 743045)", "assay_type": "functional"}, "[16]": {"experiment": "OVCAR-3 cell viability loss – plate reader, dry powder samples, PAX8 inhibitor project, dose response (AID 743044)", "assay_type": "functional, cell-based"}, "[17]": {"experiment": "IGROV1 cell killing – plate reader, dry powder samples, PAX8 inhibitor project, dose response (AID 743043)", "assay_type": "functional, cell-based", "details": "IGROV-1"}, "[18]": {"experiment": "OVCAR8 cell viability loss – plate reader, dry powder samples, PAX8 project, dose response (AID 743197)", "assay_type": "functional, cell-based", "details": "OVCAR-8"}, "[19]": {"experiment": "P. falciparum Dd2 growth inhibitors, dose response, SYBR Green, cherry-picked samples (AID 1159567)", "assay_type": "functional, cell-based"}, "[20]": {"experiment": "toxicity to human hepatoma HepG2 cells – cell-based, cherry-picked samples, cytotoxicity control, dose response (AID 1159577)", "assay_type": "functional"}, "[21]": {"experiment": "growth inhibition of yeast DHODH-expressing 3D7 parasites – SYBR Green, dry powder samples, dose response (AID 1159570);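 note: parasite growth measured after 72 hours of compound exposure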", "assay_type": "functional, cell-based"}, "[22]": {"experiment": "Dd2 malaria parasite growth inhibition potency – SYBR Green, dry powder samples, dose response (AID 1159566);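 note: potency for growth inhibition with lower SYBR green DNA signal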", "assay_type": "functional, cell-based"}, "[23]": {"experiment": "growth inhibition of PfATP4-mutant resistant parasites – NITD609-resistant line, SYBR Green, dry powder, dose response (AID 1159571);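 note: parasites synchronized at ring stage by sorbitol before testing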", "assay_type": "functional, cell-based"}, "[24]": {"experiment": "A2780 cell killing – plate reader, dry powder samples, cytotoxicity control, dose response (AID 743046)", "assay_type": "functional, cell-based"}}, "note": "Activity calls are given as the source filed them."}
{"smiles": "COc1ccc(C(=O)Nc2ccc3ccccc3c2)c(OC)c1", "values": [{"measurement": "IC50", "setting": "[1]", "value": "> 67.5 µM (inactive)"}, {"measurement": "EC50", "setting": "[2]", "value": "> 67.5 µM (inactive)"}]}
{"smiles": "Cc1c(NC(=O)c2cccnc2)c(=O)n(-c2ccccc2)n1C", "note": "[NIFENAZONE]", "values": [{"measurement": "IC50", "setting": "[3]", "value": "> 20 µM (inactive)"}, {"measurement": "IC50", "setting": "[4]", "value": "> 20 µM (inactive)"}, {"measurement": "IC50", "setting": "[5]", "value": "> 20 µM (inactive)"}, {"measurement": "IC50", "setting": "[6]", "value": "> 20 µM (inactive)"}, {"measurement": "IC50", "setting": "[7]", "value": "> 20 µM (inactive)"}, {"measurement": "IC50", "setting": "[8]", "value": "> 20 µM (inactive)"}, {"measurement": "IC50", "setting": "[9]", "value": "> 20 µM (inactive)"}]}
{"smiles": "COC(=O)C1CCCN1C(=O)COc1ccc(Br)cc1Cl", "note": "(configuration not stated)", "values": [{"measurement": "IC50", "setting": "[10]", "value": "> 122 µM (inactive)"}, {"measurement": "IC50", "setting": "[11]", "value": "> 122 µM (inactive)"}]}
{"smiles": "O=C(O)c1cc(-c2ccc(N3CCOCC3)cc2)nn1-c1ccc(F)cc1F", "values": [{"measurement": "AC50", "setting": "Trypsin", "value": "6.65 µM (active)"}, {"measurement": "AC50", "setting": "CAAX prenyl protease 2", "value": "13.5 µM (active)"}, {"measurement": "IC50", "setting": "Protein Tat", "value": "> 100 µM (active)"}, {"measurement": "IC50", "setting": "[12]", "value": "> 100 µM (active)"}]}
{"smiles": "COc1ccc(N2C(=O)CC(Nc3ccc(N4CCOCC4)cc3)C2=O)c(OC)c1", "note": "(configuration not stated)", "values": [{"measurement": "IC50", "setting": "[13]", "value": "174 µM (active)"}, {"measurement": "IC50", "setting": "Protein Tat", "value": "12.4 µM (inconclusive)"}]}
{"smiles": "CCCNC(=O)N1[C@H](C#N)[C@H](c2ccccc2-c2cccc(C)c2)[C@@H]1CO", "values": [{"measurement": "AC50", "setting": "[14]", "value": "7.01 µM (active)"}]}
{"smiles": "CCOC(=O)Oc1ccc(CCNC(=O)[C@H](CCSC)NC(C)=O)cc1OC(=O)OCC", "note": "[DOCARPAMINE]", "values": [{"measurement": "IC50", "setting": "[3]", "value": "> 20 µM (inactive)"}, {"measurement": "IC50", "setting": "[4]", "value": "> 20 µM (inactive)"}, {"measurement": "IC50", "setting": "[5]", "value": "> 20 µM (inactive)"}, {"measurement": "IC50", "setting": "[6]", "value": "> 20 µM (inactive)"}, {"measurement": "IC50", "setting": "[7]", "value": "> 20 µM (inactive)"}, {"measurement": "IC50", "setting": "[8]", "value": "> 20 µM (inactive)"}, {"measurement": "IC50", "setting": "[9]", "value": "> 20 µM (inactive)"}]}
{"smiles": "COc1ccccc1NC(=O)N1CCCCN2[C@@H](CO)[C@@H](c3ccc(-c4cccc(C)c4)cc3)[C@@H]2C1", "values": [{"measurement": "AC50", "setting": "Paired box protein Pax-8", "value": "13.2 µM (active)"}, {"measurement": "AC50", "setting": "[15]", "value": "67.5 µM (active)"}, {"measurement": "AC50", "setting": "[16]", "value": "31.6 µM (active)"}, {"measurement": "AC50", "setting": "[17]", "value": "28.4 µM (active)"}, {"measurement": "AC50", "setting": "[18]", "value": "68.6 µM (active)"}, {"measurement": "AC50", "setting": "[19]", "value": "1.43 µM (active)"}, {"measurement": "AC50", "setting": "[20]", "value": "11.2 µM (active)"}]}
{"smiles": "OC[C@H]1[C@@H](c2ccc(-c3cccnc3)cc2)[C@@H]2CN(CC3CC3)CCCCN12", "values": [{"measurement": "AC50", "setting": "[21]", "value": "1.9 µM (active)"}, {"measurement": "AC50", "setting": "[19]", "value": "2.12 µM (active)"}, {"measurement": "AC50", "setting": "[22]", "value": "1.8 µM (active)"}, {"measurement": "AC50", "setting": "[23]", "value": "2.65 µM (active)"}]}
{"smiles": "C[C@H]1CN([C@@H](C)CO)S(=O)(=O)c2ccc(C#Cc3ccncc3)cc2O[C@@H]1CN(C)C(=O)Nc1ccc2c(c1)OCO2", "values": [{"measurement": "AC50", "setting": "Paired box protein Pax-8", "value": "0.264 µM (active)"}, {"measurement": "AC50", "setting": "[15]", "value": "3.88 µM (active)"}, {"measurement": "AC50", "setting": "[24]", "value": "1.49 µM (active)"}, {"measurement": "AC50", "setting": "[16]", "value": "1.48 µM (active)"}, {"measurement": "AC50", "setting": "[17]", "value": "1.23 µM (active)"}, {"measurement": "AC50", "setting": "[18]", "value": "1.89 µM (active)"}]}
